Source: the supplement of paper PMC8671470

Columns and labels:
Settings in all cases: 72 h
[1] = system: K-562
Procedure, shortened: (§1)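 In 384-well plates holding acoustically pre-printed compounds at five tenfold doses from 1 to 10,000 nM, in duplicate, fifteen myeloid leukaemia cell lines were grown in RPMI 1640 for 72 h at 37 °C with 5% CO2. Luminescent ATP viability was scaled between vehicle and a positive control at 10 µM. The IC50 was then taken from log-logistic dose–response fits with four parameters.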

[2] = system: HEL
Procedure, shortened: as §1

[3] = system: LAMA-84
Procedure, shortened: as §1

[4] = system: BV-173
Procedure, shortened: as §1

[5] = system: MV4-11
Procedure, shortened: as §1

[6] = system: KU-812
Procedure, shortened: as §1

[7] = system: KCL-22
Procedure, shortened: as §1

[8] = system: Mono-Mac-6
Procedure, shortened: as §1

[9] = system: KG-1
Procedure, shortened: as §1

[10] = system: ML-2
Procedure, shortened: as §1

[11] = system: THP-1
Procedure, shortened: as §1

[12] = system: HL-60
Procedure, shortened: as §1

[13] = system: MOLM-13
Procedure, shortened: as §1

[14] = system: NOMO-1
Procedure, shortened: as §1

[15] = system: SHI-1
Procedure, shortened: as §1

[16] = system: K-562; assay: cell viability (% survival relative to DMSO control, bortezomib = 0%); higher = less cytotoxic
Procedure, shortened: (§2)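 Fifteen myeloid leukaemia cell lines (10 AML, 5 CML) were seeded at a density titrated to the linear growth range. They went into 384-well plates with compounds pre-printed at 1, 10, 100, 1000 or 10000 nM in duplicate. After 72 h at 37 °C with 5% CO2, viability was read by CellTiter-Glo luminescence. Values are percent survival, with vehicle set to 100% and a 10 µM positive control to 0%, averaged over the duplicates.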

[17] = system: HEL; assay: as above
Procedure, shortened: as §2

[18] = system: LAMA-84; assay: as above
Procedure, shortened: as §2

[19] = system: BV-173; assay: as above
Procedure, shortened: as §2

[20] = system: MV4-11; assay: as above
Procedure, shortened: as §2

[21] = system: KU-812; assay: as above
Procedure, shortened: as §2

[22] = system: KCL-22; assay: as above
Procedure, shortened: as §2

[23] = system: Mono-Mac-6; assay: as above
Procedure, shortened: as §2

[24] = system: KG-1; assay: as above
Procedure, shortened: as §2

[25] = system: ML-2; assay: as above
Procedure, shortened: as §2

[26] = system: THP-1; assay: as above
Procedure, shortened: as §2

[27] = system: HL-60; assay: as above
Procedure, shortened: as §2

[28] = system: MOLM-13; assay: as above
Procedure, shortened: as §2

[29] = system: NOMO-1; assay: as above
Procedure, shortened: as §2

[30] = system: SHI-1; assay: as above
Procedure, shortened: as §2

O=c1cc(N2CCOCC2)oc2c(-c3ccccc3)cccc12
Settings | IC50 (cell viability) [nM]
[1] | 291
[2] | 48.7
[3] | > 10000
[4] | 23.7
[5] | 39.2
[6] | > 10000
[7] | 9050
[8] | 3750
[9] | 4970
[10] | 32.8
[11] | > 10000
[12] | 334
[13] | 185
[14] | 25.2
[15] | 3600

cell viability [%]
Settings | 1 nM | 10 nM | 100 nM | 1000 nM | 10000 nM
[16] | 135 | 104 | 90.3 | 6.74 | 0.516
[17] | 133 | 92.1 | 23.1 | 98.9 | 78.1
[18] | 127 | 108 | 46.1 | 84.2 | 65.3
[19] | 176 | 95.7 | 1.14 | 95.6 | 48
[20] | 131 | 120 | 0.364 | -0.297 | -0.0959
[21] | 115 | 100 | 56.3 | 95.1 | 54.8
[22] | 123 | 104 | 90.5 | 98.9 | 45.1
[23] | 116 | 103 | 95.3 | 83.2 | 40.7
[24] | 114 | 106 | 82.8 | 90.8 | 28.4
[25] | 143 | 103 | 17.6 | 89.4 | 54.9
[26] | 116 | 94.1 | 99.8 | 95.8 | 59.3
[27] | 130 | 118 | 103 | 0.801 | 0.404
[28] | 125 | 119 | 77.5 | 1.16 | 0.26
[29] | 122 | 96 | 9.05 | 90.4 | 57.1
[30] | 123 | 102 | 106 | 92.8 | 30.7

O=C1C(SCCO)=C(SCCO)C(=O)c2ccccc21
Settings | IC50 (cell viability) [nM]
[1] | 549
[2] | 1510
[3] | 747
[4] | 309
[5] | 219
[6] | 530
[7] | 664
[8] | 664
[9] | 507
[10] | 307
[11] | 424
[12] | 3230
[13] | 381
[14] | 370
[15] | 450

cell viability [%]
Settings | 1 nM | 10 nM | 100 nM | 1000 nM | 10000 nM
[16] | 98.9 | 98.8 | 112 | 20.6 | 0.0893
[17] | 110 | 107 | 103 | 69.8 | -0.489
[18] | 105 | 95.6 | 101 | 36.1 | 1.35
[19] | 107 | 106 | 98.5 | 0.154 | -0.205
[20] | 96 | 113 | 83.9 | 0.103 | -0.335
[21] | 104 | 89.1 | 99.2 | 20.9 | -0.694
[22] | 112 | 101 | 89.9 | 38.3 | -0.332
[23] | 111 | 102 | 104 | 30 | -0.648
[24] | 107 | 90.2 | 94.9 | 20.2 | -0.961
[25] | 101 | 96.2 | 95.8 | 2.66 | -0.682
[26] | 100 | 98.2 | 106 | 10.8 | -1.37
[27] | 123 | 115 | 122 | 101 | -0.447
[28] | 104 | 101 | 107 | 5.3 | -0.664
[29] | 105 | 99.7 | 100 | 7.84 | -0.348
[30] | 99.5 | 103 | 95.4 | 16.8 | -0.637
